In ChEMBL document CHEMBL1148394, “Design, synthesis, and in vitro biological evaluation of small molecule inhibitors of estrogen receptor alpha coactivator binding” (J Med Chem, 2004):

These compounds were tested against Estrogen receptor (Homo sapiens, UniProt Q92731+P03372) (assay: Binding affinity towards estrogen receptor was determined).
Format: protein assay

SMILES | Ki [µM]
CC(C)CNC(=O)[C@]1(C)C[C@](C)(C(=O)NCC(C)C)C[C@](C)(C(=O)NCC(C)C)C1 | > 1000
CC(C)CC[C@H]1S[C@@H](CCC(C)C)S[C@@H](CCC(C)C)S1 | > 1000
CCC(C)CNCCc1ccc2ccc(CCNCC(C)CC)cc2c1 (stereo not drawn) | > 1000
CC(C)CCc1nc(NCC(C)C)nc(N(CC(=O)O)C(C)C)n1 | 410
CCCNc1nc(NCCC)nc(NCCC)n1 | 290
c1ccc2cc(CNc3nc(NCc4ccc5ccccc5c4)nc(NCc4ccc5ccccc5c4)n3)ccc2c1 | 290
CC(C)CCc1nc(NCC(C)C)nc(NCC(C)C)n1 | 650
CC(C)CNc1nc(NCC(C)C)nc(NCC(C)C)n1 | 590
CC(C)CCc1nc(NCC(C)C)nc(N(CC(=O)O)CC(C)C)n1 | 790

Further lines, results first:

Ki [µM] | SMILES
290 | CCCCCCCNc1nc(NCCCCCCC)nc(NCCCCCCC)n1
240 | c1ccc(CNc2nc(NCc3ccccc3)nc(NCc3ccccc3)n2)cc1
49 | c1ccc(CCc2cc(NCc3ccccc3)nc(NCc3ccccc3)n2)cc1
> 1000 | CC(C)CCNCCc1ccc2ccc(CCNCCC(C)C)cc2c1
